Laboratory results as given in patent publication US20260092061A1, “COMPOUNDS FOR TARGETED PROTEIN DEGRADATION” (Amphista Therapeutics Limited, priority 2022, published 2026).

Biological target: T1, BRD9 (Homo sapiens, UniProt Q9H8M2)
T1 sequence (Q9H8M2 1-597): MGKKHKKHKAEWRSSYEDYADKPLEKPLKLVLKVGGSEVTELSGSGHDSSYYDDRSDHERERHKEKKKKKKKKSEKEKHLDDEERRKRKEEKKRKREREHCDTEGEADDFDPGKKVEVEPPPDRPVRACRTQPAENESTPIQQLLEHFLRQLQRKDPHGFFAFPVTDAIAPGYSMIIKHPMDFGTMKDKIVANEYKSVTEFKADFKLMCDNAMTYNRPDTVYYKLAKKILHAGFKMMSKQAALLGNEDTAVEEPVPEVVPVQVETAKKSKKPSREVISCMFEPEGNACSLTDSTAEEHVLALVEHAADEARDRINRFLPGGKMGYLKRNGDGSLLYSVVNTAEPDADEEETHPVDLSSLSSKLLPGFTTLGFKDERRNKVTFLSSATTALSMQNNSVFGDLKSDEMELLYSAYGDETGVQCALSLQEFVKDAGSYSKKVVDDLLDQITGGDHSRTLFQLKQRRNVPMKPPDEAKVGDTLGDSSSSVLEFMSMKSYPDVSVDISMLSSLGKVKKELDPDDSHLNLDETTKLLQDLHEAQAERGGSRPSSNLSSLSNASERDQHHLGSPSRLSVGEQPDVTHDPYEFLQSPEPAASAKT
Assay: Degradation of BRD9 (IF), immunofluorescence in MV4-11 cells, 24 hours (Assay Protocol 2)
Type: cell-based
Parameters: A suspension of MV4-11 cells (ATCC CRL-9591) was prepared; host or cells: MV4-11
Conditions: BRD9 degradation; for DC50: Assay protocol 2, read-out: DC50; for Dmax: MV4-11, Assay protocol 2, read-out: Dmax
Method in brief: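 MV4-11 cells treated with compound 24 h at 37° C., then fixed, permeabilised and immunostained for BRD9 (anti-BRD9 E4Q3F, Alexa 647 secondary, Hoechst counterstain). High-content imaging quantified nuclear BRD9 signal; % BRD9 remaining normalised to DMSO and 100 nM CFT-8634 controls.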

SMILES | DC50 | Dmax
COc1cc(-c2cn(C)c(=O)c(C)c2C)cc(OC)c1CN1C2CC1CN(C(=O)/C(C#N)=C/C1(F)CC1)C2 (mixture of isomers) [Compound B189, (E/Z)-2-(6-(2,6-dimethoxy-4-(1,4,5-trimethyl-6-oxo-1,6-dihydropyridin-3-yl)benzyl)-3,6-diazabicyclo[3.1.1]heptane-3-carbonyl)-3-(1-fluorocyclopropyl)acrylonitrile] | 1.25 to 10 nM | > 75%
COc1cc(-c2cn(C)c(=O)c(C)c2C)ccc1OC1CCN(Cc2cccc3c2CCN(C(=O)/C(C#N)=C\C(C)(C)C)C3C)C(C)(C)C1 (stereo not drawn) [Compound C58] | 10 to 25 nM | > 75%
COc1cc(-c2cn(C)c(=O)c(C)c2C)cc(OC)c1CN1CCN(Cc2ccc3c(c2)CN(C(=O)/C(C#N)=C/C(C)(C)C)CC3)C2(CC2)C1 [Compound C1, (E/Z)-2-(7-((7-(2,6-dimethoxy-4-(1,4,5-trimethyl-6-oxo-1,6-dihydropyridin-3-yl)benzyl)-4,7-diazaspiro[2.5]octan-4-yl)methyl)-1,2,3,4-tetrahydroisoquinoline-2-carbonyl)-4,4-dimethylpent-2-enenitrile] | < 1.25 nM | > 75%
COc1cc(-c2cn(C)c(=O)c(C)c2C)cc(OC)c1CN1CCN(C(=O)c2cccc3c2CCN(C(=O)/C(C#N)=C/C(C)(C)C)C3C)C2(CC2)C1 (mixture of isomers) [Compound C43, (E/Z)-2-(5-(7-(2,6-dimethoxy-4-(1,4,5-trimethyl-6-oxo-1,6-dihydropyridin-3-yl)benzyl)-4,7-diazaspiro[2.5]octane-4-carbonyl)-1-methyl-1,2,3,4-tetrahydroisoquinoline-2-carbonyl)-4,4-dimethylpent-2-enenitrile] | 25 to 1000 nM | > 75%
COc1cc(-c2cn(C)c(=O)c(C)c2C)cc(OC)c1CN1CCN(Cc2ccc3c(c2)[C@@H](C)N(C(=O)/C(C#N)=C/C(C)(C)CF)CC3)C2(CC2)C1 (single isomer, unassigned) [Compound B202, (E/Z)-2-(7-((7-(2,6-dimethoxy-4-(1,4,5-trimethyl-6-oxo-1,6-dihydropyridin-3-yl)benzyl)-4,7-diazaspiro[2.5]octan-4-yl)methyl)-1-methyl-1,2,3,4-tetrahydroisoquinoline-2-carbonyl)-5-fluoro-4,4-dimethylpent-2-enenitrile] | < 1.25 nM | > 75%
COc1cc(-c2cn(C)c(=O)c(C)c2C)cc(OC)c1CN1CCN(Cc2cccc3c2CCN(C(=O)/C(C#N)=C/C(C)(C)C(F)F)C3C)C2(CC2)C1 (mixture of isomers) [Compound B138, (E/Z)-2-(5-((7-(2,6-dimethoxy-4-(1,4,5-trimethyl-6-oxo-1,6-dihydropyridin-3-yl)benzyl)-4,7-diazaspiro[2.5]octan-4-yl)methyl)-1-methyl-1,2,3,4-tetrahydroisoquinoline-2-carbonyl)-5,5-difluoro-4,4-dimethylpent-2-enenitrile] | < 1.25 nM | > 75%
COc1cc(-c2cn(C)c(=O)c(C)c2C)cc(OC)c1CN1CCN(S(=O)(=O)c2cccc3c2CCN(C(=O)/C(C#N)=C\C(C)(C)C)C3C)CC1 (mixture of isomers) [Compound C75, (E/Z)-2-(5-((4-(2,6-dimethoxy-4-(1,4,5-trimethyl-6-oxo-1,6-dihydropyridin-3-yl)benzyl)piperazin-1-yl)sulfonyl)-1-methyl-1,2,3,4-tetrahydroisoquinoline-2-carbonyl)-4,4-dimethylpent-2-enenitrile] | 25 to 1000 nM | > 75%
COc1cc(-c2cn(C)c(=O)c(C)c2C)cc(OC)c1CN1CCN(Cc2ccc3c(c2)[C@H](C)N(C(=O)/C(C#N)=C/C(C)(C)C)CC3)CC12CC2 (mixture of isomers) [Compound B200, (E/Z)-2-(7-((4-(2,6-dimethoxy-4-(1,4,5-trimethyl-6-oxo-1,6-dihydropyridin-3yl)benzyl)-4,7-diazaspiro[2.5]octan-7-yl)methyl)-1-methyl-1,2,3,4-tetrahydroisoquinoline-2-carbonyl)-4,4-dimethylpent-2-enenitrile] | 1.25 to 10 nM | > 75%
CCC(C)(C)/C=C(\C#N)C(=O)N1CCc2c(CN3CCN(Cc4c(OC)cc(-c5cn(C)c(=O)c(C)c5C)cc4OC)CC34CC4)cccc2C1C (mixture of isomers) [Compound B117, (E/Z)-2-(5-((7-(2,6-dimethoxy-4-(1,4,5-trimethyl-6-oxo-1,6-dihydropyridin-3-yl)benzyl)-4,7-diazaspiro[2.5]octan-4-yl)methyl)-1-methyl-1,2,3,4-tetrahydroisoquinoline-2-carbonyl)-4,4-dimethylhex-2-enenitrile] | 1.25 to 10 nM | > 75%

The next lines start with the values.

DC50 | Dmax | SMILES
25 to 1000 nM | 40 to 70% | COc1cc(-c2cn(C)c(=O)c(C)c2C)cc(OC)c1CN1CCN(Cc2ccc3c(c2)[C@H](C)N(C(=O)/C(C#N)=C/C(C)(C)C)CC3)[C@H](C)C1 (single isomer, unassigned) [Compound C3]
25 to 1000 nM | > 75% | COc1cc(-c2cn(C)c(=O)c(C)c2C)cc(OC)c1CN1CCN(Cc2cccc3c2CCN(C(=O)/C(C#N)=C/C(C)(C)C)C3C(C)C)[C@@H](C)C1 (mixture of isomers) [Compound C14, (E/Z)-2-(5-(((S)-4-(2,6-dimethoxy-4-(1,4,5-trimethyl-6-oxo-1,6-dihydropyridin-3-yl)benzyl)-2-methylpiperazin-1-yl)methyl)-1-isopropyl-1,2,3,4-tetrahydroisoquinoline-2-carbonyl)-4,4-dimethylpent-2-enenitrile]
1.25 to 10 nM | 40 to 70% | COc1cc(-c2cn(C)c(=O)c(C)c2C)cc(OC)c1CN1CCC(CN(C)c2ccc3c(c2)C(C)N(C(=O)/C(C#N)=C/C(C)(C)C)CC3)CC1 (stereo not drawn) [Compound C46]
25 to 1000 nM | > 75% | COc1cc(-c2cn(C)c(=O)c(C)c2C)ccc1CC1CCN(Cc2cccc3c2CCN(C(=O)/C(C#N)=C/C(C)(C)C)C3C)C(C)(C)C1 (mixture of isomers) [Compound C74]
< 1.25 nM | > 75% | COc1cc(-c2cn(C)c(=O)c(C)c2C)cc(OC)c1CN1CCN(Cc2ccc3c(c2)[C@@H](C)N(C(=O)/C(C#N)=C/C(C)(C)O)CC3)C2(CC2)C1 (single isomer, unassigned) [Compound C39, (E/Z)-2-(7-((7-(2,6-dimethoxy-4-(1,4,5-trimethyl-6-oxo-1,6-dihydropyridin-3-yl)benzyl)-4,7-diazaspiro[2.5]octan-4-yl)methyl)-1-methyl-1,2,3,4-tetrahydroisoquinoline-2-carbonyl)-4-hydroxy-4-methylpent-2-enenitrile]
1.25 to 10 nM | > 75% | COc1cc(-c2cn(C)c(=O)c(C)c2C)cc(OC)c1CN1CCN(Cc2cccc3c2CCN(C(=O)/C(C#N)=C/C(C)(C)C)[C@H]3C(C)C)CC12CC2 (single isomer, unassigned) [Compound C81, (E/Z)-2-(5-((4-(2,6-dimethoxy-4-(1,4,5-trimethyl-6-oxo-1,6-dihydropyridin-3-yl)benzyl)-4,7-diazaspiro[2.5]octan-7-yl)methyl)-1-isopropyl-1,2,3,4-tetrahydroisoquinoline-2-carbonyl)-4,4-dimethylpent-2-enenitrile]
1.25 to 10 nM | > 75% | COc1cc(-c2cn(C)c(=O)c(C)c2C)cc(OC)c1CN1CCN(c2cccc(C3CCCN3C(=O)/C(C#N)=C/C(C)C)c2)CC1 (mixture of isomers) [Compound B106, (E/Z)-2-(2-(3-(4-(2,6-dimethoxy-4-(1,4,5-trimethyl-6-oxo-1,6-dihydropyridin-3-yl)benzyl)piperazin-1-yl)phenyl)pyrrolidine-1-carbonyl)-4-methylpent-2-enenitrile]
1.25 to 10 nM | 40 to 70% | COc1cc(-c2cn(C)c(=O)c(C)c2C)cc(OC)c1CN1CCN(Cc2cccc3c2CCN(C(=O)/C(C#N)=C/C2CCC(F)(F)CC2)C3C)CC1 (mixture of isomers) [Compound B72, (E/Z)-3-(4,4-difluorocyclohexyl)-2-(5-((4-(2,6-dimethoxy-4-(1,4,5-trimethyl-6-oxo-1,6-dihydropyridin-3-yl)benzyl)piperazin-1-yl)methyl)-1-methyl-1,2,3,4-tetrahydroisoquinoline-2-carbonyl)acrylonitrile]
1.25 to 10 nM | 40 to 70% | COc1cc(-c2cn(C)c(=O)c(C)c2C)cc(OC)c1CN1CCC(Cc2cccc3c2CCN(C(=O)/C(C#N)=C/C(C)(C)C)C3C)CC1 (mixture of isomers) [Compound B156, (E/Z)-2-(5-((1-(2,6-dimethoxy-4-(1,4,5-trimethyl-6-oxo-1,6-dihydropyridin-3-yl)benzyl)piperidin-4-yl)methyl)-1-methyl-1,2,3,4-tetrahydroisoquinoline-2-carbonyl)-4,4-dimethylpent-2-enenitrile]
